Reference: ChEMBL document CHEMBL1159232, “Bipolal: anti-microalgal compound isolated as a candidate for marine antifouling produced by Bipolaris sp. F5206” (1995)
In brackets after ≈: the same amount, converted by molar mass.

Test system: Trichophyton mentagrophytes
Assay: Antimicrobial activity against Trichophyton mentagrophytes by microbroth dilution method
Format: functional

MIC: 1.58 µg/mL (≈ 3.96 µM)
SMILES: C=C(C=O)[C@]1(O)C[C@@]2(C)C(=CC1=O)C=C[C@H](OC(=O)/C=C/C=C/[C@@H](C)CC)[C@@H]2C
